US12402621B2, “Method for increasing longevity and/or bud opening of cut flowers” (LETAVIS AB, priority 2019, dated 2025)

Experiments:
Format in all cases: in vivo
[1] = tested on: roses of the type Upper class; assay: Effect of oxytocin on the survival of cut roses of the type Upper class (appearance scores after pretreatment in cold-storage room); settings: oxytocin 1-10 μmolar in water, cold-storage room 18 days, then tap water at room temperature; assessed at 4, 9, 15 and 20 days; FIG. 2
From the text: The stalks of newly delivered roses of the type Upper class were cut (1 cm from the lowest part of the stem) and thereafter the roses were placed in buckets containing water with different doses of oxytocin (For doses see Table 1 and kept in a cold-storage room for 18 days. Four roses were included in each treatment group.
Thereafter, the roses were moved to a home-like setting with normal room temperature. The stalk of the roses was cut again and the roses were placed in individual vases filled with tap water.
(§1) The assessment criteria were: degree of bud opening (i.e. degree of flower turn-out), degree of drooping (i.e. how bent the stalk was, freshness of the petals, freshness of the sepals and freshness of stem leaves. Each assessment criterion was given a score from 1-5 according to the description. An average score based on all the assessment criteria was also calculated.

[2] = tested on: roses of the type Furiosa; assay: Effect of oxytocin on the florescence of cut roses of the type Furiosa (appearance scores after pretreatment in cold-storage room)
Description: The stalks of newly delivered roses of the type Furiosa were cut (1 cm from the lowest part of the stem) and thereafter the roses were placed in buckets containing water with different doses of oxytocin (0, 0.1, 1 and 10 μM) and kept in a cold-storage room for […]. Nine roses were included in each treatment group.
Thereafter, the roses were moved to a home like setting with normal room temperature. The stalks of the roses were again cut and the roses were placed in individual vases filled with tap water.
as §1, with “freshness of the stem leaves.” for “freshness of stem leaves.”

[3] = tested on: roses of the type Belle Rose; assay: Effect of oxytocin on the survival of cut roses of the type Belle Rose (appearance scores after pretreatment in cold-storage room); settings: oxytocin 1, 5 and 10 μM in the presence of Chrysal, in particular 10 μM; cold-storage room 3 days, then tap water at room temperature; FIGS. 5 and 6
Description: The stalks of newly delivered roses of the type Belle Rose were cut (1 cm from the lowest part of the stem) and thereafter the roses were placed in buckets containing tap water or tap water with different doses of oxytocin (0, 1, 5 and 10 μM in the presence of Chrysal) and kept in a cold-storage room for 3 days. Eight to nine roses were included in each bucket.
Thereafter, the roses were moved to a home like setting with normal room temperature. The stalks of the roses were again cut and the rose bouquets were placed in vases filled with tap water.
as §1, with “The appearance of the roses was assessed at 0, 2, 4, 7 10 and 13 days after being placed in the home like setting according to the criteria shown in Table 2 (see Example 1). The assessment” for “The assessment”, “freshness of the stem leaves.” for “freshness of stem leaves.”

In the case of oxytocin, the “individual assessments (bud opening, drooping, freshness of petals, sepals, stem leaves)” value [1] is reported as “in a positive direction”, the “duration of time during which the roses kept fresh and attractive (days with bud opening score above 1.5)” value ([2]; in particular with 10 μM oxytocin, after being put in tap water in home-like setting, FIG. 4) is reported as “increased in response to oxytocin” and the “degree of bud opening” value ([2]; oxytocin 0.1, 1 and 10 μM, in particular 10 μM, pretreatment in cold-storage room, then tap water at room temperature, FIG. 3) is reported as “increased the degree of bud opening”. For the same substance, the “effect on degree of bud opening by length of oxytocin treatment” value ([2]; treatment with oxytocin for 3 days versus 6 hours in cold-storage room, FIG. 3) was “more pronounced after treatment with oxytocin for 3 days than for 6 hours”, the “duration of time during which the roses kept fresh and attractive” value [3] was “increased in response to oxytocin” and the level of florescence [3] was “increased the level of florescence”.
